Data taken from patent US20110064662A1, “KIT FOR PRODUCING MOLECULAR PROBE FOR PET SCREENING FOR DRUG DISCOVERY” (RIKEN, priority 2007, published 2011).

What was measured:
[1] = PET analysis of the brain of the monkey after intravenous injection of labeled compound; type: in vivo; conditions: for elimination from the brain / initial brain uptake for 10 minutes after administration: monkey; for stability against metabolism: concluded from monkey brain PET images; for initial brain uptake for 10 minutes after administration: i.v. about 900 MBq, PET of brain, compared with conventional labeled compound
Description: The N-(2,5-dimethoxybenzyl)-N-[5-fluoro(4-[^11-C]methylphenoxy)-phenyl]acetamide ([^11C]-9) (^11C-labeled compound) produced in Example 9 was diluted with a mixed solution of physiological saline (3.6 ml), propylene glycol (0.3 ml), ethanol (0.1 ml), and a Tween 80 surfactant (0.1 ml), a radioactivity of about 900 MBq was introduced into a monkey through an intravenous injection, and a PET analysis of the brain of the monkey was performed using an animal PET scanner SHR-7700 manufactured by Hamamatsu Photonics K.K. ([^11C]-20).
[^11C]DAA1106 represented by the formula below was administered into a monkey in the same manner as in Example 10 except that [^11C]DAA1106 was used in place of the N-(2,5-dimethoxybenzyl)-N-[5-fluoro(4-[^11C]methylphenoxy)phenyl]acetamide ([^11C]-9) (labeled compound) produced in Example 9. The time radioactivity curves thereof are shown also in FIG. 3. […] [^11C]DAA1106 was separately produced according to WO 99/06353.
The 1-(2-chloro-5-methylphenyl)-N-methyl-(1-methylpropyl)-3-isoquinolinecarboxamide ([^11C]-20) (^11C-labeled compound) produced in Example 11 was diluted with a mixed solution of physiological saline (3.6 ml), propylene glycol (0.3 ml), ethanol (0.1 ml), and a Tween 80 surfactant (0.1 ml), a radioactivity of about 900 MBq was introduced into a monkey through an intravenous injection, and a PET analysis of [^11C]-20 in the brain of the monkey was performed using an animal PET scanner SHR-7700 manufactured by Hamamatsu Photonics K.K. The results are shown in FIG. 2.
[^11C]PK11195 represented by the formula below was administered into a monkey in the same manner as in Example 12 except that [^11C]PK11195 was used in place of the 1-(2-chloro-5-methylphenyl)-N-methyl-(1-methylpropyl)-3-isoquinolinecarbox amide ([^11C]-20) (labeled compound) produced in Example 11. […] [^11C]PK11195 was separately produced according to R. Camsonne et al., Journal of Labeled Compounds and Radiopharmaceuticals, 1984, 11, pp. 985-991.
The 10-O-p-[^11C]methylbenzylginkgolide B ([^11C]-29) (^11C-labeled compound) produced in Example 16 was diluted with a mixed solution of physiological saline (1.8 ml), propylene glycol (0.15 ml), ethanol (0.05 ml), a Tween 80 surfactant (0.05 ml), and intralipos (2.05 ml), a radioactivity of about 900 MBq was introduced into a monkey through an intravenous injection, and a PET analysis of [^11C]-29 in the brain of the monkey was performed using an animal PET scanner SHR-7700 manufactured by Hamamatsu Photonics K.K. The results are shown in FIG. 8.
[^18F]-30 represented by the formula below was administered into a monkey in the same manner as in Example 17 except that [^18F]-30 was used in place of the 10-O-p-[^11C]-methylbenzylginkgolide B ([^11C]-29) (^11C-labeled compound) produced in Example 16. […] [^18F]-30 was separately produced according to Makiko Suehiro, et al., J. Labelled Compd. Radiopharm., 47, pp. 485-491, 2004.

PAF receptor = PAF receptor (Homo sapiens, UniProt P25105); conditions: more strongly than natural ginkgolide B; cited from earlier work
P-glycoprotein = assay: Experiment for determining P-glycoprotein substrates (brain radioactivity in rats with or without cyclosporin A pre-administration); type: in vivo; conditions: for amount of tracer present in the brain upon pre-administration of CsA: CsA in different doses 30 min before tracer, brain removed 30 min after tracer
Description: P-glycoprotein inhibitor cyclosporin A (CsA) was administered into rats 30 minutes prior to the administration of tracers. Thirty minutes after the administration of tracers, the rats were decapitated to remove the brains and measure the radioactivity. […] An SUV value in the present experiment is the average of the results obtained from 4 rats and expressed using a standard deviation.

[2] = Proportion of brain SUV to blood SUV in rats, with and without brain blood perfusion; type: in vivo; conditions: for uptake by the parenchyma of the brain: concluded from pre- and post-perfusion data; for amount of tracer after the brain blood perfusion: physiological saline perfused via the heart before decapitation
Description: As in Example 18, P-glycoprotein inhibitor cyclosporin A (CsA) was administered into rats in an amount of 25 mg/kg body weight of a rat 30 minutes prior to the administration of tracers. Thirty minutes after the administration of tracers, the rats were decapitated to remove the brains and measure the radioactivity. The figures show the results obtained from control rats into which no CsA was administered and from those into which CsA was administered in an amount of 25 mg/kg, expressed as a proportion of the brain SUV to the blood SUV. The SUV value in the present experiment is the average of the results obtained from two rats and expressed using a standard deviation. 10-O-p-[^11C]methylbenzylginkgolide B ([^11C]-29) (^11C-labeled compound) produced in Example 16 and [^18F]-30 were used as the tracers. […] FIG. 11 is from the measurement of radioactivity in the brain removed after decapitation, and FIG. 12 is from the measurement of radioactivity performed after flushing the blood out of the brain by infusing/perfusing physiological saline into the heart of a rat before decapitation.

[3] = time radioactivity curves after i.v. administration

PAF receptor, sequence (P25105 whole entry): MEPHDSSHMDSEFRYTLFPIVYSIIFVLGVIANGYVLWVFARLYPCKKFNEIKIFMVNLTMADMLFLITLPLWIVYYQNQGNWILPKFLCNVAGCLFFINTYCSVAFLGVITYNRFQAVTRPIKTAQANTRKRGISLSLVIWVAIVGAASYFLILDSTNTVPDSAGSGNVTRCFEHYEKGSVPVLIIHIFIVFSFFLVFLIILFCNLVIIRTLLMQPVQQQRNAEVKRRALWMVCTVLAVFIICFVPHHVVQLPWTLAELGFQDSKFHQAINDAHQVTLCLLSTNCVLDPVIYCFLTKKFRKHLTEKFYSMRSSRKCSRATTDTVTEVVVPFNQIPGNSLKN

| stability against metabolism [1] | initial brain uptake for 10 minutes after administration [1] | Molecule | elimination from the brain [1, 3] | brain uptake ([1]; monkey brain PET) | further results |
| --- | --- | --- | --- | --- | --- |
| – | – | CCC(C)N([11CH3])C(=O)c1cc2ccccc2c(-c2ccccc2Cl)n1 (centres unmarked) [[^11C]PK11195, reference compound] | barely eliminated from the brain | – | – |
| stable against metabolism | greater initial brain uptake | CCC(C)N(C)C(=O)c1cc2ccccc2c(-c2cc([11CH3])ccc2Cl)n1 (centres unmarked) [[^11C]-20, 1-(2-chloro-5-[^11C]methylphenyl)-N-methyl-(1-methylpropyl)-3-isoquinolinecarboxamide] | promptly eliminated from the brain with time | greater than that of the conventional labeled compound | – |
| – | – | Cc1ccc(COC2C(=O)OC3O[C@@]45C(=O)OC6C[C@@H](C(C)(C)C)C32C64[C@@H](O)[C@@H]2OC(=O)[C@@H](C)[C@@]25O)cc1 (some centres unmarked) [compound 29, 10-O-p-methylbenzylginkgolide B] | – | – | binding with a PAF receptor relative to natural ginkgolide B (PAF receptor): 10 times |
| – | – | C[C@@H]1C(=O)O[C@H]2[C@H](O)C34C5OC(=O)[C@@]3(OC3OC(=O)C(O)C34[C@H](C(C)(C)C)[C@@H]5[18F])[C@@]12O (some centres unmarked) [[^18F]-30, reference compound] | – | barely taken up by the brain | blood-brain barrier penetration ([1]; monkey brain PET): little blood-brain barrier penetration; amount of tracer present in the brain upon pre-administration of CsA (P-glycoprotein): did not change; proportion of the brain SUV to the blood SUV ([2]; 30 min after tracer, control and CsA 25 mg/kg): ≤ 0.04; uptake by the parenchyma of the brain [2]: not taken up by the parenchyma of the brain; amount of tracer after the brain blood perfusion ([2]; control and CsA 25 mg/kg): washed away by the brain blood perfusion |
| – | – | COc1ccc(O[11CH3])c(CN(C(C)=O)c2cc(F)ccc2Oc2ccccc2)c1 [[^11C]DAA1106, reference compound] | – | – | elimination from the brain ([1]; in vivo, iv): barely eliminated from the brain |
| stable against metabolism | greater initial brain uptake | COc1ccc(OC)c(CN(C(C)=O)c2cc(F)ccc2Oc2ccc([11CH3])cc2)c1 [[^11C]-9, N-(2,5-dimethoxybenzyl)-N-[5-fluoro-(4[^11C]methylphenoxy)phenyl]acetamide] | – | greater than that of the conventional labeled compound | – |
| stable against metabolism | increased initial brain uptake | 10-O-p-[^11C]methylbenzylginkgolide B [[^11C]-29] | promptly eliminated from the brain with time | – | amount of tracer present in the brain upon pre-administration of CsA (P-glycoprotein): changed in a volume-dependent manner; SUV values relative to those of [^11C]verapamil (P-glycoprotein; brain SUV, [^11C]verapamil as standard reference): about 30%; uptake by the parenchyma of the brain [2]: taken up by the parenchyma of the brain; amount of tracer after the brain blood perfusion ([2]; control and CsA 25 mg/kg): did not change |
